Data taken from patent US20040048823A1 (priority 2000, published 2004).

Legend:
[1] = test system: Rb protein in SNU475 (Rb-positive cancer cell line); experiment: Western blot of Rb protein expression after oligonucleotide transfection; type: cell-based, human; conditions: SNU475 transfected with 1 uM oligonucleotide, compared to sense Rb oligonucleotide transfectants
Experimental: An Rb-positive cancer cell SNU475 was cultured overnight in 6-well plate (5×10^6 cancer cells per well) with RPMI1640 medium. Sense or antisense Rb oligonucleotide, as described in Example 4, was transfected to the cultured cancer cells using Lipofectamine-PLUS (Gibco BRL, Grand Island, N.Y.) with the following procedures. Sense or antisense Rb oligonucleotide was diluted (final 1 uM) in fetal bovine serum-free RPMI1640 medium. PLUS reagent (Gibco BRL, NY, USA) was added, mixed well, and incubated at room temperature for 15 minutes. During this incubation, Lipofectamine was diluted in fetal bovine serum-fee RPMI1640 medium in separate test tubes. After 15 minutes, 2 solutions were mixed well and incubated at room temperature for 30 minutes for induction of oligonucleotide-Lipofectamine complex formation. During this incubation, the medium in overnight culture of the cancer cells was changed with fresh fetal bovine serum-free RPMI1640 medium. The solution containing oligonucleotide-Lipofectamine complex was carefully dropped on each culture plate and incubated at 37° C. for 3 hours. […]
Nuclear protein fraction was prepared to examine the Rb expression in SNU475 cell line transfected with sense or antisense Rb oligonucleotide by Western blotting. […] The protein concentration in the supernatant was determined and used for Western blotting. […]

[2] = test system: CPP32 caspase and poly-ADP-ribose polymerase in Hep3B cancer cells; experiment: Western blot of CPP32 caspase activation and poly-ADP-ribose polymerase cleavage; type: cell-based, human; conditions: mycolactone final 1 μg/ml
Experimental: CPP32 caspase activation and following cleavage of poly-ADP-ribose polymerase, typical biochemical phenomena of apoptosis, were examined by Western-blotting. Hep3B cancer cells (5×10^6) were cultured and treated with mycolactone (final 1 μg/ml). Cells were collected after 2, 4, 8, 12, 24, or 48 hours and Western blot was performed with anti-CPP32 antibody (Oncogene, Mass., USA) or anti-poly-ADP-ribose polymerase antibody (Enzyme Systems Products, CA, USA). Protein preparation was performed as follows. Cells were suspended in 400 μl of lysis buffer (125 mM Tris-HCl [pH 6.8], 20% glycerol, 2% SDS, and 10% β-mercaptoethanol), vortexed for 30 seconds, and kept at 95° C. for 5 minutes Cell lysates were separated on a 10% SDS-polyacrylamide gel and transferred to nitrocellulose membrane. Antibody reaction was performed with the antibodies describe above. CPP32 caspase activation was started at 4 hours and maintained until 24 hours, while the cleavage of poly-ADP-ribose polymerase was started at 8 hours after mycolactone treatment. […] Pro-CPP32 and Active CPP32 as shown on left are CPP32 caspase (the caspase 3) before and after activation, respectively; PARP is poly-ADP-ribose polymerase; cleaved PARP is cleaved poly-ADP-ribose polymerase.

murine J779 cell line = conditions: cited from earlier work
[3] = test system: Hep3B human hepatoma cells transplanted to nude mice; experiment: In vivo anticancer effect in nude mice
Experimental: Hep3B human hepatoma cells were transplanted to nude mice and tumor growth was induced for 2 to 3 weeks. Then, mycolactone was injected to the tumor tissue by 4-3 days method, that is, injection for 4 days and rest for 3 days. PBS solution (50 μl) with or without mycolactone (20 μg) was injected to tumor of treatment (T) or control (C) mouse, respectively. The tumor volume was estimated by measuring both long and short diameters. The tumor volume at the day of first injection was 101.3 mm^3 (C) or 105.9 mm^3 (T).

[4] = test system: bcl-2 family genes in Hep3B cells; experiment: Ribonuclease protection assay (RPA) of bcl-2 family gene mRNA; type: cell-based, human
Experimental: To find target genes of mycolactone, mRNA transcription levels of bcl-2 family genes were examined. Total RNA was prepared from mycolactone-treated Hep3B cells and the expression of 7 genes belonging to bcl-2 family by ribonuclease protection assay (RPA). Total RNA was prepared with RNeasy minikit (Qiagen Inc., Chatsworth, Calif.) as described below. Mycolactone treated cancer cells were collected and washed with PBS. Cells were suspended in lysis buffer containing β-mercaptoethanol. Cells were passed through a 20-G syringe for more than 5 times. Equal volume of 70% ethanol was added and the suspension was mixed well. The suspension was applied to RNeasy mini spin column. The column was centrifuged at 10,000 rpm for 15 seconds and washed 2 times with washing buffer plus PRE buffer. RNA attached to the column was eluted with RNase-free distilled water. RNA was stored at −70° C. before use.
The mRNA expression profile of bcl-2 family genes was examined by RPA using multi-probe RNase Protection Assay System (PharMingen, CA, USA) with the following procedures. Specific RNA probe labeled with radioisotope is synthesized and used for hybridization with the RNA prepared from each sample. After removal of single-stranded RNA that is not hybridized with the probe and the residual riboprobe, the sample is electrophoresed on a denaturing polyacrylamide gel. After autoradiography, the mRNA expression was analyzed through measuring the density of hybridized bands.
RPA is a 3-Step Procedure
1). Synthesis of probe: Probe is synthesized by incubating transcription mixture solution ([…], 1 μl GACU pool, 2 μl DTT, 4 μl 5× transcription buffer, 1 μl RPA template set, 1 μlA T7 polymerase) at 37° C. for 1 hour. The reaction was stopped by adding 2 μl of DNase. Probe synthesis was completed by phenol treatment and ethanol precipitation The precipitated probe was dissolved in 50 μl of hybridization buffer.
2) RNA preparation and hybridization: Total RNA prepared (10-20 μg) was kept at −70° C. for 15 minutes and dried completely in vacuum evaporator. Hybridization was performed by the following reactions; addition of 8 μl of hybridization buffer, vortexing and brief centrifuge; addition and mixing of 2 μl of probe diluted at about 3×10^5 cpm/μl; addition of mineral oil. Hybridization mixture was kept briefly at 90° C., then incubated at 56° C. for 12 to 16 hours. Hybridization was completed by incubating the mixture at 37° C. for 15 minutes.
3) RNase treatment, electrophoresis, and autoradiography: RNase mixture (100 μl) was added to the hybridization mixture and the non-hybridized RNA was removed by incubating at 30° C. for 45 minutes. RNase digestion was terminated by adding proteinase K mixture solution. After phenol treatment and ethanol precipitation, the sample was dried. The sample was nixed with 5 μl of 1× loading buffer, heated at 90° C. for 3-minutes, kept on ice, electrophoresed ort a denaturing polyacrylamide gel, dried, and exposed to X-ray film.

murine L929 cell line = conditions: cited from earlier work
[5] = test system: cancer cell lines (Malme3M, SNU1, MDAMB231, MOLT4, TCCSUP, Hep3B); experiment: Mycolactone-induced cancer cell death under light microscope; type: cell-based; conditions: mycolactone final 1 μg/ml, 72 hours, compared to not-treated
Experimental: Cancer cell lines used for the experiment was as follows; 2 skin cancer cell lines (Malme3M and SK-Mel-24), 1 breast cancer cell line (MDAMB231), 1 leukemia cell line (MOLT4), 1 stomach cancer cell line (SNU1); 1 bladder cancer cell line (TCCSUP), 8 hepatoma cell lines (SK-Hep1, Hep3B, SNU182, SNU387, SNU398, SNU449, SNU475, and HepG2), 2 colon cancer cell lines (HT-29 and DLD-1), and 1 oral cavity cancer cell line (SCC-15). Cancer cells were cultured in RPMI1640 media containing 10% fetal bovine serum, penicillin (10 unit/ml), and streptomycin (100 μg/ml) in 75 cm^2 flask at 37° C. in the presence of 5% CO2.
After cultivation of cancer cells ([…]) in 6-well plate for 24 hours, mycolactone (final 1 μg/ml) was added and the cell morphology was observed after 72 hours under light microscope. Cancer cells became round up and died after mycolactone treatment.
FIGS. (1a to 1f) show the results in skin cancer (Malme3M), stomach cancer (SNU1), breast cancer (MDAMB231), leukemia (MOLT4), bladder cancer (TCCSUP), and hepatoma (Hep3B). The morphological change of colon and oral cavity cancers is not shown.

Hep3B cancer cells = experiment: Morphological change by transmission electron microscopy; type: cell-based, human; conditions: mycolactone 1 μg/ml, 24 hours
Experimental: Morphological change of Hep3B cancer cells was observed by transmission electron microscopy (hereinafter, TEM) Cancer cells (5×10^6) were cultured and treated with mycolactone (1 μg/ml). Cell were collected after 24 hours and fixed with 2.5% glutaraldehyde. The sample was treated with OsO4, dehydrated with ethanol, and embedded to […].

[6] = test system: HUVEC (Human umbilical vein endothelial cell); experiment: Tube formation assay (In Vitro Angiogenesis Assay Kit); type: cell-based
Experimental: HUVEC (Human umbilical vein endothelial cell, American Type Culture Collection, Manassas, Va.) cells were maintained in HAM's F-12K nutrient mixture (Sigma, St. Louis, Mo.) with 10% fetal bovine serum and endothelial cell growth supplement (Sigma, St. Louis, Mo.). Cells were plated onto a 1% gelatinized plastic surface and incubated in the presence of 5% CO2 at 37° C. Tube formation assay was performed using an In Vitro Angiogenesis Assay Kit. (Chemicon, Temecula, Calif.) with following procedures. A 50 μl of the Diluent Buffer-ECMatrix solution mixture was transferred to 96-well tissue culture plate and kept at 37° C. for 1 hour for solidification of the matrix solution. HUVEC cells were seeded onto the surface of the polymerized ECMatrix in each well and incubated in the presence of ethanol (control) or mycolactone (containing 1% of ethanol).

With “antisense Rb oligonucleotide: phosphorothioate-backbone antisense oligonucleotide targeting the protein initiation codon region of human Rb mRNA (antisense GGGTTTTGGGCGGCATGA; all phosphorothioate, sugars by position and methylation of C not given here)” the Rb protein expression [1] was “Significant time-dependent decrease”.

In the case of `CC(=C\C=C\C(C)=C\[C@H](O)[C@@H](O)C[C@H](C)O)/C=C(C)/C=C/C(=O)O[C@H]1CCCC(=O)O[C@@H]([C@@H](C)C/C(C)=C/[C@@H](C)[C@H](O)C[C@@H](C)O)C/C=C(\C)C[C@@H]1C` [mycolactone], the “CPP32 caspase activation maintained until” value [2] is reported as 24 h, the “CPP32 caspase activation started at” value [2] is reported as 4 h and the “cleavage of poly-ADP-ribose polymerase started at” value [2] is reported as 8 h. For the same compound, the “cleavage of poly-ADP-ribose polymerase” value ([2]; after 48 hours) was “completely cleaved”, the “cell death with prolonged treatment” value (murine J779 cell line; J779, prolonged treatment) was “apoptosis” and the “time to G1 cell cycle arrest” value (murine J779 cell line; J779) was no more than 48 h. The “tumor tissue inside the body at sacrifice” value ([3]; day 45, T mouse) was “not to have any tumor tissue”, the “tumor, treated (T) versus control (C) mouse” value ([3]; first week, 20 μg injected into tumor, 4 days on, 3 days rest) was “no significant difference” and the tumor ([3]; fourth week, T mouse, 20 μg injected into tumor) was “disappeared”. The tumor volume ([3]; second week, T mouse, 20 μg injected into tumor, 105.9 mm^3 at first injection) was 63.8 mm^3, the tumor volume ([3]; third week, T mouse, 20 μg injected into tumor) was 20.8 mm^3 and the “condition of the treated mouse” value ([3]; until the day 45, T mouse) was “healthy”. The “mRNA expression of bcl-2” value [4] was “very low mRNA expression without significant change”, the “mRNA expression of bcl-w” value [4] was “No change” and the “mRNA expression of mcl-1” value ([4]; after 4 hours, maintained until 24 hours) was “decreased slowly”. The “mRNA expression of mcl-1” value ([4]; at 2 hour) was “increased transiently”, the “mRNA expression of bcl-XL” value ([4]; starting at 8 hours until 24 hours) was “decrease” and the “mRNA expression of pro-apoptotic genes (bad, bak, and bax)” value ([4]; until 24 hours after treatment) was “no change”. For the same compound, the “cell death with prolonged treatment” value (murine L929 cell line; L929, prolonged treatment) was “apoptosis”, the cytopathic effects (murine L929 cell line; L929) was “detaching of cells from culture plates and cell rounding-up” and the “time to G1 cell cycle arrest” value (murine L929 cell line; L929) was no more than 48 h. For the same compound, the “cancer cell death, cell morphology under light microscope” value [5] was “Significant cell death”, the “morphology by TEM” value (Hep3B cancer cells) was “typical apoptosis morphologies” and the “inhibition of tube formation maintained until” value ([6]; mycolactone 1 μg) was 7.5 h. For the same compound, the tube formation ([6]; mycolactone 1 μg, after 4 hour) was “inhibited” and the tube formation ([6]; mycolactone 5 μg, after 4 hours) was “almost completely inhibited”.
